Reference: patent US20250041179A1, “ANTIMICROBIAL COMBINATIONS” (SYMRISE AG, priority 2021, published 2025)

Tests used:
[1] = test system: E. coli; test: Preservative efficacy test (Ph. Eur., adjusted inoculum) in O/W anionic emulsion; type: cell-based, Escherichia coli; settings: substance alone 0.5% w/w
Protocol: (§1) Material was tested in predesigned standardised cosmetic formulations either as oil-in-water anionic emulsion (Table 2), shampoo (Table 3), or wet wipe solution (Table 4). The antimicrobial actives were dissolved or mixed with the standardised cosmetic formulations, leading to the indicated test concentrations (in w/w %, cf. […] To determine synergistic indices, raw values for bacterial of fungal colony counts were used. [table] […] Steinberg D. C. (2000): Measuring Synergy. In Cosmetics & Toiletries, 115) was used: […]

[2] = test system: P. aeruginosa; test: Preservative efficacy test (Ph. Eur., adjusted inoculum) in shampoo formulation; type: cell-based, Pseudomonas aeruginosa; settings: substance alone 0.5% w/w
Protocol: (§2) Preservative efficacy tests were performed according to the European Pharmacopoeia with adjusted inoculation numbers (10^6-10^7 cells of suitable bacteria or fungi). Material was tested in predesigned standardised cosmetic formulations either as oil-in-water anionic emulsion (Table 2), shampoo (Table 3), or wet wipe solution (Table 4). The antimicrobial actives were dissolved or mixed with the standardised cosmetic formulations, leading to the indicated test concentrations (in w/w %, cf. Tables 5 to 12 below). To determine synergistic indices, raw values for bacterial of fungal colony counts were used.
(§3) [formula] • where • SI is the synergism index according to Kull • CA is the cell count for substance A (also “count A”) • CB is the cell count for substance B (also “count B”) • Cmixture is the cell count for the mixture of substance A and B (also “count mix”) • PA is the proportion of the substance A in the mixture in relation to the concentration tested alone • PB is the proportion of the substance B in the mixture in relation to the concentration tested alone

[3] = test system: S. aureus; test: Preservative efficacy test (Ph. Eur., adjusted inoculum) in O/W anionic emulsion; type: cell-based, Staphylococcus aureus; settings: substance alone 0.5% w/w
Protocol: as §1

[4] = test system: C. albicans; test: Preservative efficacy test (Ph. Eur., adjusted inoculum) in shampoo formulation; type: cell-based, Candida albicans; settings: substance alone 0.5% w/w
Protocol: as §2, §3

[5] = test system: S. aureus; test: as above; type: cell-based, Staphylococcus aureus
Protocol: as §2
(§4) To calculate the synergism between the indicated antimicrobial actives (cf. preservative efficacy tests below), the Kull equation (Kull et al., Applied Microbiology 1961, 9 (6), pp. 538-541, DOI: 10.1128/am.9.6.538-541.1961.; Steinberg D. C. (2000): Measuring Synergy. In Cosmetics & Toiletries, 115) was used:
as §3

[6] = test system: E. coli; test: as above; type: cell-based, Escherichia coli; settings: substance alone 0.5% w/w
Protocol: as §2, §4, §3

[7] = test system: A. brasiliensis; test: as above; type: cell-based, Aspergillus brasiliensis
Protocol: as §2, §3

## CCCCCCCC(=O)OCCCO [3-Hydroxypropyl caprylate, 3-hydroxypropyl caprylate]
[1]
  Absolute cell counts 2 days: 3.30E+06
  Relative cell counts 2 days: 0.9706
  Absolute cell counts 7 days: 2.60E+04
  Relative cell counts 7 days: 0.0076
  Absolute cell counts 14 days: 1
  Relative cell counts 14 days: 0.0000
  Absolute cell counts 28 days: 1
  Relative cell counts 28 days: 0.0000
[2]
  Absolute cell counts 2 days: 9.30E+04
  Relative cell counts 2 days: 0.0211
  Absolute cell counts 7 days: 9.50E+02
  Relative cell counts 7 days: 0.0002
  Absolute cell counts 14 days: 1
  Relative cell counts 14 days: 0.0000
  Absolute cell counts 28 days: 1
  Relative cell counts 28 days: 0.0000
[3]
  Absolute cell counts 2 days: 2.10E+05
  Relative cell counts 2 days: 0.0382
  Absolute cell counts 7 days: 1.80E+02
  Relative cell counts 7 days: 0.0000
  Absolute cell counts 14 days: 1
  Relative cell counts 14 days: 0.0000
  Absolute cell counts 28 days: 1
  Relative cell counts 28 days: 0.0000
[4]
  Absolute cell counts 2 days: 2.10E+03
  Relative cell counts 2 days: 0.0010
  Absolute cell counts 7 days: 1
  Relative cell counts 7 days: 0.0000
  Absolute cell counts 14 days: 1
  Relative cell counts 14 days: 0.0000
  Absolute cell counts 28 days: 1
  Relative cell counts 28 days: 0.0000
[5]; substance alone 0.5% w/w
  Absolute cell counts 2 days: 1
  Relative cell counts 2 days: 0.0000
  Absolute cell counts 7 days: 1
  Relative cell counts 7 days: 0.0000
  Absolute cell counts 14 days: 1
  Relative cell counts 14 days: 0.0000
  Absolute cell counts 28 days: 1
  Relative cell counts 28 days: 0.0000
[6]
  Absolute cell counts 2 days: 1.80E+06
  Relative cell counts 2 days: 0.5806
  Absolute cell counts 7 days: 2.00E+06
  Relative cell counts 7 days: 0.6452
  Absolute cell counts 14 days: 1.70E+06
  Relative cell counts 14 days: 0.5484
  Absolute cell counts 28 days: 1.10E+06
  Relative cell counts 28 days: 0.3548
[7]; substance alone 0.5% w/w
  Absolute cell counts 2 days: 3.00E+06
  Relative cell counts 2 days: 0.9091
  Absolute cell counts 7 days: 3.80E+06
  Relative cell counts 7 days: 1.1515
  Absolute cell counts 14 days: 4.50E+06
  Relative cell counts 14 days: 1.3636
  Absolute cell counts 28 days: 8.10E+05
  Relative cell counts 28 days: 0.2455

## CC(C)(C)C(=O)C(Oc1ccc(Cl)cc1)n1ccnc1 (stereo not shown) [Climbazole, climbazole, reference compound]
[7]; substance alone 0.5% w/w
  Absolute cell counts 2 days: 1.50E+05
  Relative cell counts 2 days: 0.0366
  Absolute cell counts 7 days: 6.20E+04
  Relative cell counts 7 days: 0.0151
  Absolute cell counts 14 days: 5.90E+04
  Relative cell counts 14 days: 0.0144
  Absolute cell counts 28 days: 4.60E+04
  Relative cell counts 28 days: 0.0112

## Cc1cc(CC(C)CC(C)(C)C)n(O)c(=O)c1.NCCO (stereo not shown) [Piroctone olamine, piroctone olamine, reference compound]
[1]
  Absolute cell counts 2 days: 1
  Relative cell counts 2 days: 0.0000
  Absolute cell counts 7 days: 1
  Relative cell counts 7 days: 0.0000
  Absolute cell counts 14 days: 1
  Relative cell counts 14 days: 0.0000
  Absolute cell counts 28 days: 1
  Relative cell counts 28 days: 0.0000
[2]
  Absolute cell counts 2 days: 1
  Relative cell counts 2 days: 0.0000
  Absolute cell counts 7 days: 1
  Relative cell counts 7 days: 0.0000
  Absolute cell counts 14 days: 1
  Relative cell counts 14 days: 0.0000
  Absolute cell counts 28 days: 1
  Relative cell counts 28 days: 0.0000
[3]
  Absolute cell counts 2 days: 2.50E+06
  Relative cell counts 2 days: 0.7813
  Absolute cell counts 7 days: 3.80E+04
  Relative cell counts 7 days: 0.0119
  Absolute cell counts 14 days: 1
  Relative cell counts 14 days: 0.0000
  Absolute cell counts 28 days: 1
  Relative cell counts 28 days: 0.0000
[4]
  Absolute cell counts 2 days: 1
  Relative cell counts 2 days: 0.0000
  Absolute cell counts 7 days: 1
  Relative cell counts 7 days: 0.0000
  Absolute cell counts 14 days: 1
  Relative cell counts 14 days: 0.0000
  Absolute cell counts 28 days: 1
  Relative cell counts 28 days: 0.0000

## C/C=C/C=C/C(=O)[O-].[K+] [Potassium Sorbate, potassium sorbate]
[7]; substance alone 0.5% w/w
  Absolute cell counts 2 days: 1.40E+04
  Relative cell counts 2 days: 0.0034
  Absolute cell counts 7 days: 1
  Relative cell counts 7 days: 0.0000
  Absolute cell counts 14 days: 1
  Relative cell counts 14 days: 0.0000
  Absolute cell counts 28 days: 1
  Relative cell counts 28 days: 0.0000

## O=C(O)c1ccccc1O [Salicylic Acid, salicylic acid, reference compound]
[2]
  Absolute cell counts 2 days: 1
  Relative cell counts 2 days: 0.0000
  Absolute cell counts 7 days: 1
  Relative cell counts 7 days: 0.0000
  Absolute cell counts 14 days: 1
  Relative cell counts 14 days: 0.0000
  Absolute cell counts 28 days: 1
  Relative cell counts 28 days: 0.0000
[4]
  Absolute cell counts 2 days: 7.30E+01
  Relative cell counts 2 days: 0.0000
  Absolute cell counts 7 days: 1
  Relative cell counts 7 days: 0.0000
  Absolute cell counts 14 days: 1
  Relative cell counts 14 days: 0.0000
  Absolute cell counts 28 days: 1
  Relative cell counts 28 days: 0.0000
[6]
  Absolute cell counts 2 days: 9.50E+03
  Relative cell counts 2 days: 0.0021
  Absolute cell counts 7 days: 7.20E+03
  Relative cell counts 7 days: 0.0016
  Absolute cell counts 14 days: 1
  Relative cell counts 14 days: 0.0000
  Absolute cell counts 28 days: 1
  Relative cell counts 28 days: 0.0000

## O=C([O-])c1ccccc1.[Na+] [Sodium Benzoate, sodium benzoate]
[2]
  Absolute cell counts 2 days: 9.60E+03
  Relative cell counts 2 days: 0.0026
  Absolute cell counts 7 days: 1
  Relative cell counts 7 days: 0.0000
  Absolute cell counts 14 days: 1
  Relative cell counts 14 days: 0.0000
  Absolute cell counts 28 days: 1
  Relative cell counts 28 days: 0.0000
[5]; substance alone 0.2% w/w
  Absolute cell counts 2 days: 2.20E+04
  Relative cell counts 2 days: 0.0037
  Absolute cell counts 7 days: 1
  Relative cell counts 7 days: 0.0000
  Absolute cell counts 14 days: 1
  Relative cell counts 14 days: 0.0000
  Absolute cell counts 28 days: 1
  Relative cell counts 28 days: 0.0000
[6]
  Absolute cell counts 2 days: 8.70E+05
  Relative cell counts 2 days: 0.1933
  Absolute cell counts 7 days: 9.50E+05
  Relative cell counts 7 days: 0.2111
  Absolute cell counts 14 days: 4.20E+05
  Relative cell counts 14 days: 0.0933
  Absolute cell counts 28 days: 2.40E+04
  Relative cell counts 28 days: 0.0053
[7]; substance alone 0.2% w/w
  Absolute cell counts 2 days: 8.00E+04
  Relative cell counts 2 days: 0.0800
  Absolute cell counts 7 days: 1.10E+04
  Relative cell counts 7 days: 0.0110
  Absolute cell counts 14 days: 3.30E+02
  Relative cell counts 14 days: 0.0003
  Absolute cell counts 28 days: 3.20E+02
  Relative cell counts 28 days: 0.0003
